Assay results reported in article PMC6720259, “Phlorotannins with Potential Anti-Tyrosinase and Antioxidant Activity Isolated from the Marine Seaweed Ecklonia stolonifera” (Antioxidants, 2019).
Entries after “also recorded” stand apart in the source; their conditions may differ. Like-named read-outs stand apart in the source and are kept apart here.

What was measured:
[1] = ABTS•+ radical scavenging assay; settings: mean ± SD of triplicates
Source text: This assay assesses the ability of different substances to scavenge ABTS radical cations (ABTS^•+) in comparison with the positive control, Trolox. The method was developed by Re et al. 1999 [21].

[2] = ONOO− radical scavenging assay; settings: mean ± SD of triplicates
Protocol: ONOO^− scavenging activity was assessed by a modified version of Kooy’s method, which monitors the production of fluorescent rhodamine 123 from non-fluorescent DHR 123 in the presence of ONOO^−. L-Penicillamine was used as a positive control.

[3] = tested on: B16F10 melanoma cells; experiment: Cell viability (MTT) assay; format: cell-based, mouse; settings: 6.25, 12.5, 25, 50, and 100 μM, with or without α-MSH co-treatment
Protocol: B16F10 mouse melanoma cells were obtained from the American Type Culture Collection (Manassas, VA, USA). Cells were cultured at 37 °C in high-glucose DMEM supplemented with 10% FBS, 100 U/mL penicillin, and 100 μg/mL streptomycin in a humidified atmosphere containing 5% CO2. The MTT assay was used to determine the cytotoxicity of 974-A, phlorofucofuroeckol-A, and eckol according to previously described methods with slight modifications. Briefly, B16F10 cells were seeded in a 96-well plate at 1 × 10^4 cells/well and incubated for 24 h in DMEM supplemented with 10% FBS. […] After 24-h incubation of the samples, the FBS-free DMEM was suctioned, and the cells were treated with an MTT solution (100 μL at 0.5 mg/mL in phosphate-buffered saline (PBS)) and incubated for 2 h. The proportion of surviving cells was determined after the medium was replaced with 100 µL of DMSO. […] The absorbance was measured at 570 nm on a microplate reader (Molecular Devices, Sunnyvale, CA, USA).

[4] = tested on: cellular tyrosinase of B16F10 cells; experiment: Cellular TYR activity assay (L-DOPA oxidase activity); format: cell-based, mouse; settings: for Cellular tyrosinase activity of α-MSH-stimulated B16F10 cells: 6.25-100 μM, α-MSH 3 μM, 24 h; for Inhibition of cellular tyrosinase compared with arbutin (500 μM): compound at 100 μM, α-MSH-stimulated B16F10 cells
Protocol: Cellular TYR activity was measured as L-DOPA oxidase activity by a previously described method with some modifications. Cells were seeded at 1 × 10^4 cells/well in a 24-well plate, incubated for 24 h and then stimulated with α-MSH (3 μM) in the presence or absence of 974-A, phlorofucofuroeckol-A, or eckol for 24 h. After treatment, the cells were washed with cold PBS and lysed with RIPA buffer. The cell lysates were centrifuged at 12,000 rpm for 10 min, and the supernatant was used as the cellular TYR solution. The reaction mixture, which contained 80 μL of the cell lysate and 20 μL of L-DOPA (20 mM), was incubated at 37 °C for 45 min. After the incubation, dopachrome formation was measured spectrophotometrically every 10 min for 45 min at 450 nm on a microplate reader (Molecular Devices). TYR activity was calculated as a percentage of the control.

[5] = biological target: T1, mushroom tyrosinase (Agaricus bisporus, UniProt C7FF04); experiment: In vitro mushroom tyrosinase inhibitory assay (L-tyrosine and L-DOPA as substrates); format: biochemical; settings: for IC50: mean ± SD of triplicates
T1 construct: purchased Sigma Aldrich
T1 sequence (C7FF04 1-392 limits assumed): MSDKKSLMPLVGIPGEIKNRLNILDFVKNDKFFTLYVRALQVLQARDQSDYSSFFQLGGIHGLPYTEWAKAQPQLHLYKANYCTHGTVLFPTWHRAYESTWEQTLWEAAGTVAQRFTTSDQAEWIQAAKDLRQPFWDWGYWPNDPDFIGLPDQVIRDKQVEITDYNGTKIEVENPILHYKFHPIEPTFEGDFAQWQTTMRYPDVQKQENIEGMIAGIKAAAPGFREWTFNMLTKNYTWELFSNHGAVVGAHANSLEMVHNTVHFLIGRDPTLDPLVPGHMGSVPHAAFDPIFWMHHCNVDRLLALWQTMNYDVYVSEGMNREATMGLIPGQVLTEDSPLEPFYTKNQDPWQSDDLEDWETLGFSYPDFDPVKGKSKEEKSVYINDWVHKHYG
Protocol: Mushroom tyrosinase inhibitory activity was assessed by the method described by Kang et al. 2004 [17] with slight modifications.

[6] = tested on: tyrosinase, TRP-1, and TRP-2 expression in B16F10 cells; experiment: Western blot analysis of melanogenic enzymes; format: cell-based, mouse; settings: 12.5–50 μM, α-MSH-stimulated B16F10 cells
Protocol: B16F10 cells were stimulated with α-MSH in the presence or absence of compounds for the indicated times. The cells were then washed with ice-cold PBS and lysed with RIPA buffer on ice for 30 min. After centrifugation of the samples at 12,000× g for 20 min, the protein concentrations of the supernatants were determined. Aliquots of protein were resolved by sodium dodecyl sulfate-polyacrylamide gel electrophoresis (SDS-PAGE) and transferred onto a nitrocellulose membrane. The membrane was washed with Tris-buffered saline (TBS; 10 mM Tris-HCl, 150 mM NaCl, pH 7.5) supplemented with 0.05% Tween 20 (TBST), blocked with 5% skim milk (w/v) in TBST for 2 h and incubated for approximately 20 h with the primary antibodies. The immunoblots were then incubated with the appropriate secondary antibody coupled to horseradish peroxidase for 2 h, and protein levels were detected with an ECL detection kit. Densitometric analysis of data from at least three independent experiments was performed with a cooled CCD camera system and CS analyzer version 3.00 software. Fold-increases in protein expression were calculated versus normal controls. The experiments were repeated three times for each experimental condition.

[7] = tested on: B16F10 melanoma cells; experiment: Melanin content assay in α-MSH-stimulated cells; format: cell-based, mouse; settings: for Melanin content of α-MSH-stimulated B16F10 cells: 6.25-100 μM, α-MSH 3 μM, 24 h; for Inhibition of melanin content compared with arbutin (500 μM): compound at 100 μM, α-MSH-stimulated B16F10 cells
Protocol: The intracellular melanin content was determined according to a procedure described previously with minor modifications. Briefly, B16F10 cells were seeded in a 24-well plate at 1 × 10^4 cells/well and incubated for 24 h in DMEM containing 10% FBS. Cells were pretreated with various concentrations of 974-A, phlorofucofuroeckol-A, and eckol for 1 h, and then were stimulated with α-MSH (3 μM) for 24 h. The cells were washed with PBS, and were dissolved in 1 N NaOH containing 10% DMSO by being boiled at 80 °C for 30 min. The cell lysates were centrifuged at 14,000 rpm for 10 min, and the absorbance of the supernatant was measured at 405 nm on a microplate reader (Molecular Devices). The absorbance was normalized to the total protein content for the determination of the melanin content.

[8] = DPPH radical scavenging activity; settings: mean ± SD of triplicates
Protocol: DPPH radical scavenging activity was evaluated by the method described by Blois, 1958 [19] with slight modifications. L-Ascorbic acid was used as a positive control.

[9] = biological target: T1, mushroom tyrosinase; experiment: Kinetic analysis of mushroom tyrosinase inhibition (Lineweaver-Burk and Dixon plots); format: biochemical; settings: for Ki: Dixon plot; for Type of inhibition, L-DOPA / Type of inhibition, L-Tyrosine: Lineweaver-Burk plot
Protocol: The inhibition mode and inhibition constant (Ki) for mushroom tyrosinase inhibition were calculated from the Lineweaver-Burk and Dixon plots. Kinetic parameters were obtained for various concentrations of the substrates (L-tyrosine and L-DOPA) and inhibitors (974-A, phlorofucofuroeckol-A and eckol). Graphs were generated with Sigma plot 12.0 (SPSS Inc., Chicago, IL, USA).

[10] = tested on: melanin synthesis; parameters: method as in PMID 19490939; settings: at 250 μM; cited from earlier work
[11] = tested on: IBMX-treated cells; parameters: method as in PMID 19361156; settings: cited from earlier work
[12] = tested on: tyrosinase; parameters: method as in PMID 19490939; settings: at 50 μM; cited from earlier work
[13] = tested on: cellular melanin and tyrosinase; parameters: method as in earlier work; settings: previous study; cited from earlier work
[14] = IC50 Value, Mushroom Tyrosinase Inhibition, L-DOPA, substrate L-DOPA
[15] = IC50 Value, Mushroom Tyrosinase Inhibition, L-Tyrosine, substrate L-tyrosine
[16] = substrate L-DOPA, read-out: IC50 Value, Mushroom Tyrosinase Inhibition, L-DOPA
[17] = substrate L-tyrosine, read-out: IC50 Value, Mushroom Tyrosinase Inhibition, L-Tyrosine
[18] = substrate L-DOPA, read-out: Ki Value, L-DOPA
[19] = substrate L-tyrosine, read-out: Ki Value, L-Tyrosine

Molecule	IC50 [1] [µM]	IC50 [2] [µM]	Cytotoxicity towards B16F10 melanoma cells (MTT) [3]	Cellular tyrosinase activity of α-MSH-stimulated B16F10 cells [4]	Inhibition of cellular tyrosinase compared with arbutin (500 μM) [4]	Expression of tyrosinase, TRP-1, and TRP-2 (Western blot) [6]	Melanin content of α-MSH-stimulated B16F10 cells [7]	Inhibition of melanin content compared with arbutin (500 μM) [7]	IC50 [8] [µM]	Type of inhibition, L-DOPA ([9]; substrate L-DOPA)	Type of inhibition, L-Tyrosine ([9]; substrate L-tyrosine)	other results
Oc1cc(O)cc(Oc2c(O)cc(O)c3c2Oc2c(O)cc4oc5c(Oc6cc(O)cc(O)c6)c(O)cc(O)c5c4c2O3)c1 [Phlorofucofuroeckol-A, phlorofucofuroeckol-A]	12.9 ± 0.95	0.85 ± 0.1	none of them exhibited significant cytotoxicity up to 100 μM	reduced the cellular melanin content and tyrosinase activity	more potent	downregulated the expression of melanogenesis enzymes; also recorded: dose-dependently attenuated the expression of TYR, TRP-1, and TRP-2	reduced the cellular melanin content	comparable to arbutin	1.92 ± 0.09	Non-competitive	Non-competitive	IC50 [5, 14]: 8.14 ± 0.29 µM; IC50 [5, 15]: 3.42 ± 0.01 µM; Ki ([9]; Ki Value, L-DOPA, substrate L-DOPA): 7.14 µM; Ki ([9]; Ki Value, L-Tyrosine, substrate L-tyrosine): 2.7 µM; Type of inhibition, L-DOPA ([9]; substrate L-DOPA, listed as phlorofucofuroeckol-A): non-competitive; Type of inhibition, L-Tyrosine ([9]; substrate L-tyrosine, listed as phlorofucofuroeckol-A): non-competitive
CC1=C(/C=C/C(C)=C/C=C/C(C)=C/CO)C(C)(C)CCC1 [retinol]												Inhibition of melanin synthesis [10]: 75.3%
Oc1cc(O)cc(Oc2c(O)cc(O)c3c2oc2cc(O)c4c(c23)Oc2c(O)cc(O)c(Oc3cc(O)cc(O)c3-c3c(O)cc(O)cc3Oc3c(O)cc(O)cc3Oc3c(O)cc(O)cc3O)c2O4)c1 [Compound 974-A, 974-A]	6.29 ± 0.34	0.26 ± 0.06	none of them exhibited significant cytotoxicity up to 100 μM	reduced the cellular melanin content and tyrosinase activity	as active	downregulated the expression of melanogenesis enzymes; also recorded: dose-dependently attenuated the expression of tyrosinase, TRP-1, and TRP-2	reduced the cellular melanin content	comparable to arbutin	0.92 ± 0.11	Competitive	Competitive	IC50 [5, 16]: 3.56 ± 0.22 µM; IC50 [5, 17]: 1.57 ± 0.08 µM; Ki [9, 18]: 3.33 µM; Ki [9, 19]: 0.69 µM
O=C1O[C@H]([C@@H](O)CO)C(O)=C1O [Ascorbic acid, L-ascorbic acid, reference compound]									0.69 ± 0.04			
Oc1cc(O)cc(O)c1 [Phloroglucinol, phloroglucinol]	31.5 ± 1.68	1.72 ± 0.59							> 100			Inhibition of mushroom tyrosinase, either substrate (in words) ([5]; L-tyrosine and L-DOPA): No significant inhibition; IC50 [5, 16]: > 400 µM; IC50 [5, 17]: 251 ± 5.52 µM
7-phloreckol [Compound 7-phloreckol]												Melanin content of IBMX-treated cells [11]: significantly and dose-dependently reduced the melanin content
Oc1cc(O)cc(Oc2c(O)cc(O)c3c2Oc2c(O)cc(Oc4c(O)cc(Oc5c(O)cc(O)c6c5Oc5c(O)cc(O)cc5O6)cc4O)cc2O3)c1 [Dieckol]												Tyrosinase inhibitory activity [12]: 88.9%
Cc1c(C)c2c(c(C)c1O)CCC(C)(C(=O)O)O2 (centres unmarked) [Trolox, reference compound]	18.4 ± 0.7											
CC(C)(S)C(N)C(=O)O (stereo in doubt) [Penicillamine, L-penicillamine, reference compound]		1.07 ± 0.21										
Oc1cc(O)cc(Oc2c(O)cc(O)c3c2Oc2c(O)cc(O)cc2O3)c1 [Eckol, eckol]	5.01 ± 0.19	0.73 ± 0.07	none of them exhibited significant cytotoxicity up to 100 μM	reduced the cellular melanin content and tyrosinase activity	as active	downregulated the expression of melanogenesis enzymes; also recorded: dose-dependently attenuated the expression of TYR, TRP-1, and TRP-2	reduced the cellular melanin content	more effective than arbutin	1.63 ± 0.65	Non-competitive	Non-competitive	IC50 [5, 14]: 29.6 ± 0.48 µM; IC50 [5, 15]: 9.12 ± 0.36 µM; Melanin levels and tyrosinase at a cellular level [13]: dose-dependently reduce melanin levels and inhibit tyrosinase at a cellular level; Ki [9, 18]: 28.5 µM; Type of inhibition, L-DOPA ([9]; substrate L-DOPA, listed as eckol): non-competitive; Ki [9, 19]: 8.6 µM; Type of inhibition, L-Tyrosine ([9]; substrate L-tyrosine, listed as eckol): non-competitive
